Test results published in US20230146507A1, “N-PHENYL-3-MERCAPTOPROPANAMIDE DERIVATIVES AS METALLO-BETA-LACTAMASE INHIBITORS FOR THE TREATMENT OF BACTERIAL INFECTIONS” (Helmholtz-Zentrum Für Infektionsforschung GmbH, priority 2020, published 2023).
One block for each molecule: values may come before it.

Experiments:
[1] = molecular target: T1, NDM-1 (Klebsiella pneumoniae, UniProt C7C422); assay: In vitro inhibition assay (kinetic fluorescence-based activity assay), NDM-1; assay type: biochemical; details: Means and SD of at least two independent experiments
T1 construct: made in house
Procedure: (§1) Protein expression and purification. The expression of IMP-7, VIM-1, and NDM-1 was performed according to the protocol previously published by Klingler et al. (Klingler, F. M.; Wichelhaus, T. A.; Frank, D.; Cuesta-Bernal, J.; El-Delik, J.; Müller, H. F.; Sjuts, H.; Gottig, S.; Koenigs, A.; Pos, K. M.; et al. Approved Drugs Containing Thiols as Inhibitors of Metallo-β-Lactamases: Strategy to Combat Multidrug-Resistant Bacteria. J. Med. Chem. 2015, 58 (8), 3626-3630. https://doi.org/10.1021/jm501844d) with slight modifications.
(§2) In vitro inhibition assay. Activity assays for NDM-1, VIM-1, VIM-2 and IMP-7 were carried out, as described by Klingler et al. Final protein concentrations were 0.5 nM (NDM-1), 4.0 nM (VIM-1), and 0.1 nM (IMP-7) in a 50 mM HEPES buffer (pH 7.5, 0.01% Triton X-100) Substrate (Fluorocillin™ (Invitrogen, Darmstadt, Germany) was dissolved in assay buffer to a final concentration of 888 nM. Test compounds were dissolved and pre-diluted in DMSO (final concentration: 1%). In a black polystyrol 96-well plate (Corning) an amount of […] of the respective inhibitor solution at different concentrations was incubated with […] of respective protein containing buffer for 30 minutes at room temperature. […] of substrate solution was added. The readout of the emitted fluorescence was started immediately (45 s for 30 cycles) using a Tecan Infinite F200Pro (Tecan Group Ltd; excitation at 495 nm and emission at 525 nm). Blank controls were performed without enzyme. Positive controls were performed with enzyme but without inhibitor. The inhibitory activity of each test compound was measured in three independent experiments. For calculation of IC50 values, data obtained from measurements with eight different inhibitor concentrations were used. For the evaluation of the sigmoidal dose response equation (variable slope with four parameters) GraphPad Prism 5 (GraphPad Software, La Jolla, Calif., USA) was used.

[2] = molecular target: IMP-7 (Pseudomonas aeruginosa, UniProt Q93AU3); assay: In vitro inhibition assay (kinetic fluorescence-based activity assay), IMP-7; assay type: biochemical; details: Means and SD of at least two independent experiments
Procedure: as §1, §2

[3] = molecular target: T2, VIM-1 (Pseudomonas aeruginosa, UniProt A0A0F7KYQ8); assay: In vitro inhibition assay (kinetic fluorescence-based activity assay), VIM-1; assay type: biochemical; details: Means and SD of at least two independent experiments
T2 construct: made in house
Procedure: as §1, §2

[4] = system: different isolates from E. coli and P. aeruginosa; assay: MIC assay, intrinsic antibacterial activity; assay type: cell-based; details: compound alone
[5] = system: E. coli NDM-1 (T2359); assay: Checkerboard assay with imipenem, E. coli NDM-1 (T2359); assay type: cell-based; details: Table 6
Procedure: (§3) Fractional inhibitory concentration index (FICI). The checkerboard assay was performed to test for synergy in vitro. […] FICIs≤0.5 were defined as synergistic; FICIs from >0.5 to […] were defined as additive; FICIs from 1 to ≤4 were defined as indifferent and FICIs>4 were defined as antagonistic (Doern, C. D. When Does 2 plus 2 Equal 5? A Review of Antimicrobial Synergy Testing. J. Clin. Microbial. 2014, 52 (12), 4124-4128. https://doi.org/10.1128/JCM.01121-14).

[6] = system: E. coli VIM-1 (T2544); assay: Checkerboard assay with imipenem, E. coli VIM-1 (T2544); assay type: cell-based
Procedure: as §3

[7] = system: E. coli IMP-1 (T2360); assay: Checkerboard assay with imipenem, E. coli IMP-1 (T2360); assay type: cell-based
Procedure: as §3

Chain of IMP-7 (Q93AU3 entry or part of it): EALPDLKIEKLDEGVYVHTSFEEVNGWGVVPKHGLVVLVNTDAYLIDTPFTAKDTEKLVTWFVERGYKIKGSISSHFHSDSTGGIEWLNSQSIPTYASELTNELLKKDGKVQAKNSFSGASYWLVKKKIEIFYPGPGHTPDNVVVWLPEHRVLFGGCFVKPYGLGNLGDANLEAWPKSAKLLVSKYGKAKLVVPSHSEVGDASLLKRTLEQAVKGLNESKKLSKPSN
T1 sequence (C7C422 29-270, looked up, species assumed): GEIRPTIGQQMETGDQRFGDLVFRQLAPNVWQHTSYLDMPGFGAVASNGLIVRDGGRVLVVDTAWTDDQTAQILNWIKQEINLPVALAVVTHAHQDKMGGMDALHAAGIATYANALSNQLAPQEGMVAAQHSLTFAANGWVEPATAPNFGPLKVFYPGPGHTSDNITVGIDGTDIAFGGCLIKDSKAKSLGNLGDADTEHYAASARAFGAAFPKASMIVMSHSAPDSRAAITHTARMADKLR

SMILES: O=C(CCS)Nc1cccc(S(=O)(=O)O)c1 [HIPS5672]
IC50 [1]: 1.3 µM
IC50 [2]: 3.6 ± 0.3 µM
IC50 [3]: 1.6 ± 0.1 µM
intrinsic antibacterial activity (MIC) [4]: no intrinsic antibacterial activity
Imipenem MIC ([5]; +2 mg/L compound): 128 µg/mL
Imipenem MIC ([5]; +4 mg/L compound): 128 µg/mL
Imipenem MIC ([5]; +8 mg/L compound): 128 µg/mL
Imipenem MIC ([5]; +16 mg/L compound): 128 µg/mL
Imipenem MIC ([5]; +32 mg/L compound): 128 µg/mL
Imipenem MIC ([5]; +64 mg/L compound): 32 µg/mL
Imipenem MIC ([5]; +128 mg/L compound): 2 µg/mL
Imipenem MIC ([6]; +2 mg/L compound): 64 µg/mL
Imipenem MIC ([6]; +4 mg/L compound): 64 µg/mL
Imipenem MIC ([6]; +8 mg/L compound): 64 µg/mL
Imipenem MIC ([6]; +16 mg/L compound): 32 µg/mL
Imipenem MIC ([6]; +32 mg/L compound): 32 µg/mL
Imipenem MIC ([6]; +64 mg/L compound): 8 µg/mL
Imipenem MIC ([6]; +128 mg/L compound): 4 µg/mL
Imipenem MIC ([7]; +2 mg/L compound): 2 µg/mL
Imipenem MIC ([7]; +4 mg/L compound): 2 µg/mL
Imipenem MIC ([7]; +8 mg/L compound): 2 µg/mL
Imipenem MIC ([7]; +16 mg/L compound): 1 µg/mL
Imipenem MIC ([7]; +32 mg/L compound): 1 µg/mL
Imipenem MIC ([7]; +64 mg/L compound): 1 µg/mL
Imipenem MIC ([7]; +128 mg/L compound): 0.5 µg/mL

SMILES: NC(=O)NS(=O)(=O)c1ccc(NC(=O)CCS)cc1 [HIPS5682]
IC50 [1]: 8.6 ± 0.2 µM
IC50 [2]: 12.6 ± 2.8 µM
IC50 [3]: 2 ± 0.1 µM
intrinsic antibacterial activity (MIC) [4]: no intrinsic antibacterial activity
Imipenem MIC ([5]; +2 mg/L compound): 128 µg/mL
Imipenem MIC ([5]; +4 mg/L compound): 128 µg/mL
Imipenem MIC ([5]; +8 mg/L compound): 128 µg/mL
Imipenem MIC ([5]; +16 mg/L compound): 128 µg/mL
Imipenem MIC ([5]; +32 mg/L compound): 128 µg/mL
Imipenem MIC ([5]; +64 mg/L compound): 64 µg/mL
Imipenem MIC ([5]; +128 mg/L compound): 16 µg/mL
Imipenem MIC ([6]; +2 mg/L compound): 32 µg/mL
Imipenem MIC ([6]; +4 mg/L compound): 32 µg/mL
Imipenem MIC ([6]; +8 mg/L compound): 32 µg/mL
Imipenem MIC ([6]; +16 mg/L compound): 32 µg/mL
Imipenem MIC ([6]; +32 mg/L compound): 16 µg/mL
Imipenem MIC ([6]; +64 mg/L compound): 8 µg/mL
Imipenem MIC ([6]; +128 mg/L compound): 2 µg/mL
Imipenem MIC ([7]; +2 mg/L compound): 2 µg/mL
Imipenem MIC ([7]; +4 mg/L compound): 2 µg/mL
Imipenem MIC ([7]; +8 mg/L compound): 2 µg/mL
Imipenem MIC ([7]; +16 mg/L compound): 1 µg/mL
Imipenem MIC ([7]; +32 mg/L compound): 1 µg/mL
Imipenem MIC ([7]; +64 mg/L compound): 1 µg/mL
Imipenem MIC ([7]; +128 mg/L compound): 1 µg/mL

SMILES: N=C(N)NS(=O)(=O)c1ccc(NC(=O)CCS)cc1 [HIPS5683]
IC50 [1]: 2.1 ± 0.1 µM
IC50 [2]: 3.3 ± 0.4 µM
IC50 [3]: 0.5 µM
intrinsic antibacterial activity (MIC) [4]: no intrinsic antibacterial activity
Imipenem MIC ([5]; +2 mg/L compound): 128 µg/mL
Imipenem MIC ([5]; +4 mg/L compound): 128 µg/mL
Imipenem MIC ([5]; +8 mg/L compound): 128 µg/mL
Imipenem MIC ([5]; +16 mg/L compound): 128 µg/mL
Imipenem MIC ([5]; +32 mg/L compound): 128 µg/mL
Imipenem MIC ([5]; +64 mg/L compound): 64 µg/mL
Imipenem MIC ([5]; +128 mg/L compound): 16 µg/mL
Imipenem MIC ([6]; +2 mg/L compound): 32 µg/mL
Imipenem MIC ([6]; +4 mg/L compound): 32 µg/mL
Imipenem MIC ([6]; +8 mg/L compound): 32 µg/mL
Imipenem MIC ([6]; +16 mg/L compound): 32 µg/mL
Imipenem MIC ([6]; +32 mg/L compound): 16 µg/mL
Imipenem MIC ([6]; +64 mg/L compound): 8 µg/mL
Imipenem MIC ([6]; +128 mg/L compound): 2 µg/mL
Imipenem MIC ([7]; +2 mg/L compound): 2 µg/mL
Imipenem MIC ([7]; +4 mg/L compound): 1 µg/mL
Imipenem MIC ([7]; +8 mg/L compound): 1 µg/mL
Imipenem MIC ([7]; +16 mg/L compound): 1 µg/mL
Imipenem MIC ([7]; +32 mg/L compound): 1 µg/mL
Imipenem MIC ([7]; +64 mg/L compound): 1 µg/mL
Imipenem MIC ([7]; +128 mg/L compound): 0.5 µg/mL

SMILES: O=C(CCS)Nc1ccc(C(=O)O)cc1 [HIPS5695]
IC50 [1]: 1 ± 0.4 µM
IC50 (μM) IMP-7 [2]: n.i.
IC50 [3]: 0.6 µM
intrinsic antibacterial activity (MIC) [4]: no intrinsic antibacterial activity
Imipenem MIC ([5]; +2 mg/L compound): 128 µg/mL
Imipenem MIC ([5]; +4 mg/L compound): 128 µg/mL
Imipenem MIC ([5]; +8 mg/L compound): 128 µg/mL
Imipenem MIC ([5]; +16 mg/L compound): 128 µg/mL
Imipenem MIC ([5]; +32 mg/L compound): 128 µg/mL
Imipenem MIC ([5]; +64 mg/L compound): 32 µg/mL
Imipenem MIC ([5]; +128 mg/L compound): 8 µg/mL
Imipenem MIC ([6]; +2 mg/L compound): 16 µg/mL
Imipenem MIC ([6]; +4 mg/L compound): 16 µg/mL
Imipenem MIC ([6]; +8 mg/L compound): 16 µg/mL
Imipenem MIC ([6]; +16 mg/L compound): 16 µg/mL
Imipenem MIC ([6]; +32 mg/L compound): 4 µg/mL
Imipenem MIC ([6]; +64 mg/L compound): 2 µg/mL
Imipenem MIC ([6]; +128 mg/L compound): 1 µg/mL
Imipenem MIC ([7]; +2 mg/L compound): 2 µg/mL
Imipenem MIC ([7]; +4 mg/L compound): 2 µg/mL
Imipenem MIC ([7]; +8 mg/L compound): 2 µg/mL
Imipenem MIC ([7]; +16 mg/L compound): 1 µg/mL
Imipenem MIC ([7]; +32 mg/L compound): 1 µg/mL
Imipenem MIC ([7]; +64 mg/L compound): 0.5 µg/mL
Imipenem MIC ([7]; +128 mg/L compound): 0.5 µg/mL

Other lines, results leading:

IC50 [1]: 2.5 ± 0.2 µM
IC50 [2]: 2.6 ± 0.1 µM
IC50 [3]: 0.1 µM
SMILES: O=C(CCS)Nc1cccc([N+](=O)[O-])c1 [HIPS5662]

IC50 [1]: 6.5 ± 0.4 µM
IC50 [2]: 5.5 ± 0.7 µM
IC50 [3]: 0.8 ± 0.1 µM
SMILES: CCN(CC)Cc1cccc(NC(=O)CCS)c1 [HIPS5664]

IC50 [1]: 2.8 ± 0.1 µM
IC50 [2]: 2.1 ± 0.2 µM
IC50 [3]: 0.8 µM
SMILES: CN(C)S(=O)(=O)c1ccc(NC(=O)CCS)cc1 [HIPS5665]

IC50 [1]: 6.5 ± 0.5 µM
IC50 [2]: 2.1 ± 0.3 µM
IC50 [3]: 0.5 µM
SMILES: Nc1ccc(NC(=O)CCS)cc1 [HIPS5666]

IC50 [1]: 6.4 ± 0.6 µM
IC50 [2]: 5.8 ± 0.4 µM
IC50 [3]: 1.5 ± 0.1 µM
SMILES: CN1CCN(Cc2ccc(NC(=O)CCS)cc2)CC1 [HIPS5696]
